Data from ChEMBL document CHEMBL1201862, “PubChem BioAssay data set” (2004).
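Briefly, cells in 96-well plates were exposed to five compound concentrations for 48 h, and endpoints were estimated by linear interpolation. Here, GI50 denotes the concentration required for 50% inhibition of growth.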 The source made the active and inactive calls. Cut-off read from the data, not from the text of the source: active = GI50 up to about 1.1 µM and inactive = higher.

Tests used:
Assay in all cases: DTP human tumour cell line panel, 48 h
SN12C = test system: SN12C
KM12 = test system: KM12
SK-MEL-5 = test system: SK-MEL-5
DU-145 = test system: DU-145
SK-OV-3 = test system: SK-OV-3
MDA-N = test system: MDA-N
U-251 = test system: U-251
ACHN = test system: ACHN
SNB-75 = test system: SNB-75
NCI-H23 = test system: NCI-H23
TK-10 = test system: TK-10
RXF 393 = test system: RXF 393
NCI-H522 = test system: NCI-H522
HOP-62 = test system: HOP-62
SW-620 = test system: SW-620
EKVX = test system: EKVX
SK-MEL-2 = test system: SK-MEL-2
SNB-19 = test system: SNB-19
RPMI-8226 = test system: RPMI-8226
SF-295 = test system: SF-295
OVCAR-4 = test system: OVCAR-4
CCRF-CEM = test system: CCRF-CEM
UACC-62 = test system: UACC-62
OVCAR-5 = test system: OVCAR-5
BT-549 = test system: BT-549
COLO 205 = test system: COLO 205
K562 = test system: K562
UACC-257 = test system: UACC-257
SF-539 = test system: SF-539
SK-MEL-28 = test system: SK-MEL-28
OVCAR-3 = test system: OVCAR-3
UO-31 = test system: UO-31
NCI-H460 = test system: NCI-H460
A498 = test system: A498
OVCAR-8 = test system: OVCAR-8
HT-29 = test system: HT-29
786-0 = test system: 786-0
NCI-H226 = test system: NCI-H226
Hs-578T = test system: Hs-578T
IGROV-1 = test system: IGROV-1
MOLT-4 = test system: MOLT-4
HCT-15 = test system: HCT-15
LOX IMVI = test system: LOX IMVI
MCF7 = test system: MCF7
SF-268 = test system: SF-268
NCI/ADR-RES = test system: NCI/ADR-RES
PC-3 = test system: PC-3
T47D = test system: T47D
HCT-116 = test system: HCT-116
Malme-3M = test system: Malme-3M
A549 = test system: A549
CAKI-1 = test system: CAKI-1
MDA-MB-231 = test system: MDA-MB-231
MDA-MB-435 = test system: MDA-MB-435
M14 = test system: M14
HCC 2998 = test system: HCC 2998
HL-60 = test system: HL-60
SR = test system: SR

## CCOC(=O)C(CCSC)(CCSC)C(=O)OCC
SN12C
  GI50: > 100 µM (inactive)
KM12
  GI50: > 100 µM (inactive)
SK-MEL-5
  GI50: > 100 µM (inactive)
DU-145
  GI50: > 100 µM (inactive)
SK-OV-3
  GI50: 27.7 µM (inactive)
MDA-N
  GI50: > 100 µM (inactive)
U-251
  GI50: > 100 µM (inactive)
ACHN
  GI50: > 100 µM (inactive)
SNB-75
  GI50: > 100 µM (inactive)
NCI-H23
  GI50: > 100 µM (inactive)
TK-10
  GI50: > 100 µM (inactive)
RXF 393
  GI50: > 100 µM (inactive)
NCI-H522
  GI50: > 100 µM (inactive)
HOP-62
  GI50: > 100 µM (inactive)
SW-620
  GI50: > 100 µM (inactive)
EKVX
  GI50: > 100 µM (inactive)
SK-MEL-2
  GI50: > 100 µM (inactive)
SNB-19
  GI50: > 100 µM (inactive)
RPMI-8226
  GI50: > 100 µM (inactive)
SF-295
  GI50: > 100 µM (inactive)
OVCAR-4
  GI50: > 100 µM (inactive)
CCRF-CEM
  GI50: > 100 µM (inactive)
UACC-62
  GI50: 18.7 µM (inactive)
OVCAR-5
  GI50: > 100 µM (inactive)
BT-549
  GI50: > 100 µM (inactive)
COLO 205
  GI50: > 100 µM (inactive)
K562
  GI50: > 100 µM (inactive)
UACC-257
  GI50: > 100 µM (inactive)
SF-539
  GI50: > 100 µM (inactive)
SK-MEL-28
  GI50: > 100 µM (inactive)
OVCAR-3
  GI50: > 100 µM (inactive)
UO-31
  GI50: > 100 µM (inactive)
NCI-H460
  GI50: > 100 µM (inactive)
A498
  GI50: > 100 µM (inactive)
OVCAR-8
  GI50: > 100 µM (inactive)
HT-29
  GI50: > 100 µM (inactive)
786-0
  GI50: > 100 µM (inactive)
NCI-H226
  GI50: > 100 µM (inactive)
Hs-578T
  GI50: > 100 µM (inactive)
IGROV-1
  GI50: > 100 µM (inactive)
MOLT-4
  GI50: > 100 µM (inactive)
HCT-15
  GI50: > 100 µM
LOX IMVI
  GI50: > 100 µM (inactive)
MCF7
  GI50: > 100 µM (inactive)
SF-268
  GI50: > 100 µM (inactive)
NCI/ADR-RES
  GI50: > 100 µM (inactive)
PC-3
  GI50: > 100 µM (inactive)
T47D
  GI50: > 100 µM (inactive)
HCT-116
  GI50: > 100 µM (inactive)
Malme-3M
  GI50: > 100 µM (inactive)
A549
  GI50: > 100 µM (inactive)
CAKI-1
  GI50: > 100 µM (inactive)
MDA-MB-231
  GI50: > 100 µM (inactive)
MDA-MB-435
  GI50: > 100 µM (inactive)
M14
  GI50: > 100 µM (inactive)
HCC 2998
  GI50: > 100 µM (inactive)

## COc1ccc([N+](=O)[O-])c2c(NCC(O)CO)ccnc12 (configuration not stated)
SN12C
  GI50: 77.8 µM (inactive)
KM12
  GI50: 37.8 µM (inactive)
SK-MEL-5
  GI50: 23 µM (inactive)
DU-145
  GI50: 83.9 µM (inactive)
SK-OV-3
  GI50: > 100 µM (inactive)
MDA-N
  GI50: 49.3 µM (inactive)
U-251
  GI50: 50.4 µM (inactive)
ACHN
  GI50: 43.8 µM (inactive)
SNB-75
  GI50: 47.8 µM (inactive)
NCI-H23
  GI50: 18 µM (inactive)
TK-10
  GI50: 67.5 µM (inactive)
RXF 393
  GI50: 28.1 µM (inactive)
NCI-H522
  GI50: 15.5 µM (inactive)
HOP-62
  GI50: 38.6 µM (inactive)
SW-620
  GI50: 42.1 µM (inactive)
EKVX
  GI50: 16.1 µM (inactive)
SK-MEL-2
  GI50: 23.1 µM (inactive)
SNB-19
  GI50: 93.8 µM (inactive)
RPMI-8226
  GI50: 62.7 µM (inactive)
SF-295
  GI50: 39.8 µM (inactive)
OVCAR-4
  GI50: 13.5 µM (inactive)
CCRF-CEM
  GI50: 87.1 µM (inactive)
UACC-62
  GI50: 22 µM (inactive)
OVCAR-5
  GI50: > 100 µM (inactive)
BT-549
  GI50: 20 µM (inactive)
COLO 205
  GI50: 22.5 µM (inactive)
K562
  GI50: 18.5 µM (inactive)
UACC-257
  GI50: 28.1 µM (inactive)
SF-539
  GI50: 28.8 µM (inactive)
SK-MEL-28
  GI50: > 100 µM (inactive)
OVCAR-3
  GI50: 24.2 µM (inactive)
UO-31
  GI50: 63.1 µM (inactive)
NCI-H460
  GI50: 16.9 µM (inactive)
A498
  GI50: 32.4 µM (inactive)
OVCAR-8
  GI50: 50.4 µM (inactive)
HL-60
  GI50: 51.1 µM (inactive)
HT-29
  GI50: 31.7 µM (inactive)
786-0
  GI50: 67.6 µM (inactive)
Hs-578T
  GI50: 22.5 µM (inactive)
IGROV-1
  GI50: 27.3 µM (inactive)
MOLT-4
  GI50: 38.9 µM (inactive)
HCT-15
  GI50: 16.1 µM
SR
  GI50: 34.4 µM (inactive)
LOX IMVI
  GI50: 36.1 µM (inactive)
MCF7
  GI50: 29 µM (inactive)
SF-268
  GI50: 35.9 µM (inactive)
PC-3
  GI50: 49.8 µM (inactive)
T47D
  GI50: 36.4 µM (inactive)
HCT-116
  GI50: 28.9 µM (inactive)
Malme-3M
  GI50: 20.3 µM (inactive)
A549
  GI50: 35 µM (inactive)
CAKI-1
  GI50: 52.6 µM (inactive)
MDA-MB-231
  GI50: 88.1 µM (inactive)
MDA-MB-435
  GI50: > 100 µM (inactive)
M14
  GI50: 52.7 µM (inactive)
HCC 2998
  GI50: 32.2 µM (inactive)
